# PubChem BioAssay AID1645848
# Details: buffer; pH 7.4; 6.0 h; 150.0 µM
row,Compound,solubility kinetic
1,O=C1Nc2ccc(I)cc2/C1=C/c1cc(Br)c(O)c(Br)c1,< 1 µg/mL
2,Cc1ccc(S(=O)(=O)Nc2cnccc2C(=O)Nc2ccc(C#N)cc2)cc1,> 58 µg/mL
3,O=C1NCc2ccc(-c3cc4c(ccn4Cc4cccnc4)c(C4=CCOCC4)n3)cc21,54 µg/mL
4,COc1ccc(Nc2cnc3ccc(-c4ccc(OC)c(OC)c4)nn23)cc1,< 1 µg/mL
5,CC(=O)Nc1nc(C)c(-c2ccc(Cl)c(S(=O)(=O)NCCO)c2)s1,> 57 µg/mL
6,CCc1ccc(-n2nc(C)c3c2NC(=O)CSC3c2ccccc2C)cc1 (centres undefined),1.11 µg/mL
7,COc1ccc(-c2cc(-c3ccccc3)nc(SCC(=O)Nc3ccccc3C)c2C#N)cc1,< 1 µg/mL
8,COc1ccc(NC(=O)c2cc(-c3ccc[nH]3)n[nH]2)cc1OC,> 31 µg/mL
9,COc1cccc(CNc2ccc(S(=O)(=O)Nc3nccs3)cc2)c1N,> 58 µg/mL
10,O=C1CCCC2=C1C1(CCCC1)N=C(Nc1nc3ccccc3o1)N2,< 1 µg/mL
11,Cc1sc2c(c1C)C(c1ccc(Cl)cc1)=N[C@H](CC(=O)NCCCCNC(=O)COc1cccc3c1C(=O)N([C@H]1CCC(=O)NC1=O)C3=O)c1nnc(C)n1-2,63.8 µg/mL
12,C[C@@]1(C(=O)Nc2ccc(F)nc2)CCCN1c1nc(Nc2cc(C3CC3)[nH]n2)c2cccn2n1,31.1 µg/mL
13,O=C(Nc1cccc(Cc2ccccc2)n1)c1ccc(-c2cccc([N+](=O)[O-])c2)o1,2.73 µg/mL
14,COc1cccc(-c2cn3c(n2)sc2cc(C(=O)NCCc4ccc(OC)c(OC)c4)ccc23)c1,< 1 µg/mL
15,Cn1nc(-c2ccccc2F)c2cc(C(=O)Nc3cc(F)ccc3F)sc21,< 1 µg/mL
16,O=C1c2ccccc2-n2c1nc1ccccc1c2=O,8.45 µg/mL
17,O=C(Nc1ccc(S(=O)(=O)Nc2nccs2)cc1)c1ccncc1,19.5 µg/mL
18,Cc1cc(C)c(C(=O)Nc2cccc([S+](=O)([O-])Nc3ccc(Br)cc3)c2)[nH]1,< 1 µg/mL
19,Nc1cc(CN2C(=O)c3ccccc3C2=O)cc(Cl)c1O,20.8 µg/mL
20,Cc1ccccc1C(=O)Nc1ccc2c(c1)CCCN2C(=O)c1cccs1,7.15 µg/mL
21,Cc1cccc(S(=O)(=O)c2cn(Cc3ccccc3)c3cc(N4CCCCC4C)c(F)cc3c2=O)c1 (centres undefined),< 1 µg/mL
22,C[C@H]1CN(C(=O)c2nn(C)c3ccccc23)C[C@@H]1c1nc(-c2cccnc2)no1,19.7 µg/mL
23,Cc1noc([C@@H]2CN(C(=O)c3nn(C)c4ccccc34)C[C@H]2CO)n1,> 100 µg/mL
24,Cc1cccc(NC(=S)N2CCN(c3cccc(C(F)(F)F)c3)CC2)c1,1.59 µg/mL
25,O=C(Nc1ccccc1F)c1nc(S(=O)(=O)Cc2ccccc2F)ncc1Cl,3.63 µg/mL

row,Compound,solubility kinetic
1,COc1ccc(O)c2c(=O)c3c(OC)cc4c(c3oc12)C1C=COC1O4 (centres undefined),< 1 µg/mL
2,Cc1ccc(C(N)=O)cc1Nc1nccc(-c2cn(C(C)C)c3cnccc23)n1,45.2 µg/mL
3,CC(=O)c1c(C)[nH]c(C(=O)Nc2cccc(S(=O)(=O)Nc3ccc(Br)c(F)c3)c2)c1C,< 1 µg/mL
4,O=C(O)C1CCN(c2ncc(-c3ccc4c(c3)OCCCO4)s2)CC1,> 53 µg/mL
5,CCOc1ccc(CCNC(=O)c2cc3sccc3n2CCN2CCN(C)CC2)cc1OCC,> 72 µg/mL
6,OC1(CN2CCN(c3ccc(F)c(Cl)c3)CC2)CCCNC1 (centres undefined),> 48 µg/mL
7,CCOc1ccc(CCNC(=O)c2cc3cnccc3n2Cc2cccc(C)c2)cc1OCC,> 68 µg/mL
8,COc1cccc(CNC(=O)CCCn2nc(C)c3c(C)n(-c4ccc(C)cc4)nc3c2=O)c1OC,2.58 µg/mL
9,Cc1ccccc1C(=O)Nc1sc2c(c1C(=O)NCc1ccco1)CCC(C(C)(C)C)C2 (centres undefined),< 1 µg/mL
10,Cc1ccc2oc3c(c(=O)c2c1)C(c1ccc(O)cc1)N(CCCN(C)C)C3=O (centres undefined),> 58 µg/mL
11,CC(C)c1ccc(Nc2c(-c3ccccn3)nc3ccccn23)cc1,< 1 µg/mL
12,NC(=O)Nc1cc(-c2ccc(CN3CCOCC3)cc2)sc1C(N)=O,14.3 µg/mL
13,Fc1ccc(Nc2nc(Nc3ccncc3)nc3ccccc23)cc1F,2.19 µg/mL
14,Cc1cc(C)nc(NC(=S)N2CCN(c3ccc(Cl)cc3F)CC2)c1,3.36 µg/mL
15,O=C(Nc1ccc(Cl)cc1Cl)c1cnc2ccccc2n1,< 1 µg/mL
16,COc1ccc(-n2nc(C3CCCN([S+](=O)([O-])c4cccc(C(F)(F)F)c4)C3)[nH]c2=O)cc1 (centres undefined),< 1 µg/mL
17,Cc1ccc(-c2cc(C(=O)Nc3ccc(-n4cncn4)cc3)c3ccccc3n2)cc1C,< 1 µg/mL
18,CC(C)Oc1ccc(C(=O)Nc2ccc3c(c2)CCCN3C(=O)c2cccs2)cc1,< 1 µg/mL
19,COc1ccccc1CNc1ccc(N2CCCCC2)cc1,12.9 µg/mL
20,Fc1cnc(-c2ccccc2C(F)F)nc1NCC1CCN(c2cnccn2)CC1,< 1 µg/mL
21,Cn1c(=O)c2[nH]c(=O)[nH]c2n(C)c1=O,> 29 µg/mL
22,CCCCCCOc1ccc(OC(=O)c2ccncc2)cc1,< 1 µg/mL
23,Cc1ccnc(NC(=S)N2CCN(c3ccc(Cl)c(Cl)c3)CC2)c1,< 1 µg/mL
24,CC(=O)Nc1ccc(CN2CCc3nc(C(C)C)nc(-c4ccc(Cl)cc4)c3CC2)cc1,33.1 µg/mL
25,CCOc1ccc(CCNC(=O)c2cc3ccccc3n2Cc2cccc(C)n2)cc1OCC,< 1 µg/mL

row,Compound,solubility kinetic
1,COc1cccc(CNc2ccc(S(=O)(=O)Nc3cccc(-c4ccccc4)c3)cc2)c1O,< 1 µg/mL
2,Nc1c(S(=O)(=O)c2cccs2)c2nc3ccccc3nc2n1Cc1ccccc1,< 1 µg/mL
3,CC1CCN(C(=O)c2ccc(-c3ccc(N4CCSCC4)nc3)cc2)CC1,2.44 µg/mL
4,Cc1ccc(-c2ccc(CNc3nc(-c4ccccc4C(C)C)ncc3F)cc2)cn1,< 1 µg/mL
5,OCCNc1ncnc2c1ncn2[C@@H]1O[C@@H](CO)[C@H](O)[C@@H]1O,> 46 µg/mL
6,O=C1Nc2ccccc2/C1=C\c1ccc(C(=O)O)cc1,> 39 µg/mL
7,COc1cccc(CNc2ccc(S(=O)(=O)Nc3ccc(C4CCNCC4)cc3)cc2)c1O,58.4 µg/mL
8,Cc1noc(C)c1-c1ccc(Nc2nc(-c3ccncc3)nc3ccccc23)cc1F,< 1 µg/mL
9,CCOC(=O)C1=C(C)NC(=O)CC1C(=O)Nc1cc(Cl)cc(Cl)c1 (centres undefined),22.4 µg/mL
10,COc1ccc(-n2nc(C3CCCN(CC4CCCCC4)C3)[nH]c2=O)cc1 (centres undefined),> 37 µg/mL
11,O=C1CCCC2=C1C(c1ccccc1I)N=C(Nc1nc3ccccc3o1)N2 (centres undefined),< 1 µg/mL
12,CCC[C@H](NC(=O)/C(C#N)=C/c1cccc(Br)n1)c1ccccc1,< 1 µg/mL
13,CC(C)Oc1cccc(C2CC(=O)Nc3cc4c(cc32)OCO4)c1 (centres undefined),1.53 µg/mL
14,O=C(O)c1cn(C2CC2)c2cc(N3C[C@@H]4C[C@H]3CN4)c(F)cc2c1=O,> 51 µg/mL
15,CCOC(=O)Nc1cc(-c2ccc(C)c(NS(C)(=O)=O)c2)nn2c(C)nnc12,33.6 µg/mL
16,COc1cc(-c2nc(Nc3ccc(F)c(F)c3)c3ccccc3n2)ccn1,< 1 µg/mL
17,CC(C)n1cc(-c2ccc(Oc3ccccc3)cc2)c2c(N)ncnc21,< 1 µg/mL
18,COCCNS(=O)(=O)c1cc(-c2nn3c(C)nnc3c3ccccc23)ccc1C,29 µg/mL
19,O=C1/C(=C\c2ccccc2)C[C@@]2(O)C3Cc4ccc(O)c5c4[C@@]2(CCN3CC2CC2)[C@H]1O5,> 42 µg/mL
20,Cc1c(Cl)cccc1NC(=O)CNS(=O)(=O)c1cccs1,> 51 µg/mL
21,NC(=O)C1CCN(c2ncc(-c3ccc4c(c3)OC(F)(F)O4)s2)CC1,< 1 µg/mL
22,O=C(NCCc1ccccc1)C1CCN(c2nc(-c3ccc(Br)cc3)cs2)CC1,4.49 µg/mL
23,Cc1cc(Nc2nc(-c3ccncc3)nc3ccccc23)n[nH]1,1.1 µg/mL
24,CCCc1nnc(NC(=O)c2nc(S(=O)(=O)Cc3ccc(C)cc3)ncc2Cl)s1,> 67 µg/mL
25,COc1ccnc(NC(=S)N2CCN(c3cccc(C(F)(F)F)n3)CC2)c1,< 1 µg/mL

row,Compound,solubility kinetic
1,Cc1ccc(CNc2ccccc2C(=O)Nc2nc(-c3ccccc3)cs2)cc1,< 1 µg/mL
2,COc1ccc(S(=O)(=O)N(CC(=O)Nc2ccc(C)cc2)c2ccc(C)cc2)cc1OC,< 1 µg/mL
3,COCCOc1cnc2ccn([C@H](C)c3nnc4c(F)cc(-c5cnn(C)c5)cn34)c(=O)c2c1,> 68 µg/mL
4,CCCCn1cnc2cc(NC(=O)c3cc(OC)c(OC)c(OC)c3)ccc21,48.1 µg/mL
5,Nc1c(-c2ccncc2)cc[nH]c1=O,11.8 µg/mL
6,CO[C@@H]1/C=C\O[C@@]2(C)Oc3c(C)c(O)c4c(c3C2=O)C(=N[C@H]2CC[C@H](O)O[C@@H]2C)C=C(NC(=O)/C(C)=C\C(=O)[C@@H]2C[C@@H]2[C@@H](O)[C@H](C)[C@@H](O)[C@H](C)[C@H](OC(C)=O)[C@@H]1C)C4=O,32.3 µg/mL
7,Nc1c(-c2ccccc2)cnc2c(-c3ccccc3)cnn12,< 1 µg/mL
8,CCn1cc(C(=O)O)c(=O)c2cnc(N3CCN(C(=S)Nc4ccccc4)CC3)nc21,> 65 µg/mL
9,CC(C)(C)c1ccc(C(=O)Nc2ccc3c(c2)CCCN3C(=O)c2cccs2)cc1,< 1 µg/mL
10,Cc1nn(Cc2ccccc2Cl)c(C)c1CN(C)CC(O)COc1ccc(Cl)cc1 (centres undefined),55.6 µg/mL
11,NC(=O)C1CCN(c2nc(-c3cccc([N+](=O)[O-])c3)cs2)CC1,28.4 µg/mL
12,Cc1cc(SCC(=O)c2ccccc2)n2ncc(-c3ccccc3)c2n1,< 1 µg/mL
13,CCOc1ccc(CCNC(=O)c2cc3sccc3n2Cc2ccc(F)cc2F)cc1OCC,< 1 µg/mL
14,O=C(NCc1cccs1)c1cn2cc(-c3ccccc3)sc2n1,< 1 µg/mL
15,NS(=O)(=O)c1ccc(Cc2c(-c3cccc(-c4ccccc4)c3)nn(-c3nc(C(=O)O)cs3)c2CC2CC2)cc1,> 84 µg/mL
16,Cn1c(CN2CCCC2)nc2cc(NC(=O)COc3ccc(Cl)cc3)ccc21,> 59 µg/mL
17,Cc1ccc(NS(=O)(=O)c2ccc(C(=O)Nc3nc(-c4ccccc4)cs3)cc2)cc1,< 1 µg/mL
18,Cc1ccc(C)c(SC2=NS(=O)(=O)c3ccccc32)c1,< 1 µg/mL
19,Cc1cccc(Nc2nc(NCc3ccco3)c3ccccc3n2)c1.Cl,< 1 µg/mL
20,Fc1cccc(F)c1Nc1nc(-c2ccncc2)nc2ccccc12,< 1 µg/mL
21,COc1cc(Cl)c(C)cc1NS(=O)(=O)c1c(C)nc2sccn2c1=O,< 1 µg/mL
22,COc1cccc(CNc2ccc(S(=O)(=O)Nc3ncccn3)cc2)c1O,> 57 µg/mL
23,O=C(Nc1nc(-c2ccccc2)cs1)c1ccncc1NS(=O)(=O)c1ccc(F)cc1F,> 70 µg/mL
24,COc1ccc(-c2c(-c3cc(C(=O)O)ccn3)ncn2C)cc1,> 46 µg/mL
